Drawing on ChEMBL document CHEMBL6087462, “Cuminaldehyde Potentiates Antiproteolytic Peptide Efficacy via Parallel Pathways of Enhanced Inner Membrane-Damaging Activity and Inhibition of Bacterial Energy Metabolism” (J Med Chem, 2025), this text covers MIC and Ratio for seven compounds.

A word on the MIC: it is the lowest concentration found to suppress growth.

Experiment [1] can be described thus: Antimicrobial activity against Salmonella enterica subsp. enterica serovar Pullorum ATCC 7913 assessed as reduction in microbial growth by CLSI based broth microdilution method. The experiment is classed as functional.
Experiment [2] deals with Staphylococcus aureus. Put plainly: Antimicrobial activity against Staphylococcus aureus ATCC 25923 assessed as reduction in microbial growth by CLSI based broth microdilution method. The experiment is classed as functional. A general note: In broth dilution the organism is exposed to a series of concentrations in liquid medium.
For experiment [3], the system named is Staphylococcus epidermidis. Put plainly: Antimicrobial activity against Staphylococcus epidermidis ATCC 12228 assessed as reduction in microbial growth by CLSI based broth microdilution method. Type of experiment: functional.
The subject of experiment [4] is Escherichia coli. Put plainly: Antimicrobial activity against Escherichia coli ATCC 25922 assessed as reduction in microbial growth by CLSI based broth microdilution method. Type of experiment: functional.
For experiment [5], the system named is Salmonella typhimurium. Put plainly: Antimicrobial activity against Salmonella typhimurium ATCC 7731 assessed as reduction in microbial growth by CLSI based broth microdilution method. The note with it: Salmonella enterica. The experiment is classed as functional, Salmonella enterica subsp. enterica serovar Typhimurium.
The subject of experiment [6] is Staphylococcus aureus. The experiment is described as follows: Antimicrobial activity against Staphylococcus aureus ATCC 29213 assessed as reduction in microbial growth by CLSI based broth microdilution method. Type of experiment: functional.
For a further experiment, the system named is Enterococcus faecalis. The experiment is described as follows: Antimicrobial activity against Enterococcus faecalis ATCC 29212 assessed as reduction in microbial growth by CLSI based broth microdilution method. The experiment is classed as functional.
The subject of experiment [7] is Escherichia coli. Put plainly: Antimicrobial activity against Escherichia coli 078 assessed as reduction in microbial growth by CLSI based broth microdilution method. The experiment is classed as functional.
For experiment [8], the system named is Escherichia coli. Put plainly: Antimicrobial activity against Escherichia coli UB 1005 assessed as reduction in microbial growth by CLSI based broth microdilution method. Type of experiment: functional.
For a further experiment, the system named is Pseudomonas aeruginosa. The experiment is described as follows: Antimicrobial activity against Pseudomonas aeruginosa ATCC 27853 assessed as reduction in microbial growth by CLSI based broth microdilution method. The experiment is classed as functional.
In experiment [9] the test system is Staphylococcus aureus. Put plainly: Antimicrobial activity against Staphylococcus aureus 43300 assessed as reduction in microbial growth by CLSI based broth microdilution method. The experiment is classed as functional.
Experiment [10] relates to Escherichia coli. The experiment is described as follows: Antimicrobial activity against Escherichia coli K99 assessed as reduction in microbial growth by CLSI based broth microdilution method. The experiment is classed as functional.
The test system of experiment [11] is Salmonella typhimurium. Put plainly: Antimicrobial activity against Salmonella typhimurium ATCC 14028 assessed as reduction in microbial growth by CLSI based broth microdilution method. Type of experiment: functional, Salmonella enterica subsp. enterica serovar Typhimurium. As to conditions: Salmonella enterica.
The subject of experiment [12] is Escherichia coli. The experiment is described as follows: Antimicrobial activity against Escherichia coli K88 assessed as reduction in microbial growth by CLSI based broth microdilution method. The experiment is classed as functional.
Experiment [13] relates to Escherichia coli. The experiment is described as follows: Drug resistance, ratio of MIC for Escherichia coli ATCC 25922 after 30 passages to MIC for Escherichia coli ATCC 25922 […] after initial exposure. Type of experiment: functional.

As for `CC(C)=CCCC(C)CC=O` (stereo not given), the MIC in [1] was found to be 32800 µg/mL; in the experiment on Staphylococcus aureus [2], 16400 µg/mL; in [3] it was 16400 µg/mL; with Escherichia coli [4], 16400 µg/mL; in the experiment with Salmonella typhimurium [5], 32800 µg/mL; in the experiment with Staphylococcus aureus [6] it was 4100 µg/mL. Further, the MIC was found to be 1020 µg/mL in the experiment on Enterococcus faecalis; 32800 µg/mL with Escherichia coli [7]; 16400 µg/mL in the experiment with Escherichia coli [8]; 16400 µg/mL in the experiment with Pseudomonas aeruginosa; 4100 µg/mL with Staphylococcus aureus [9]; 32800 µg/mL in the experiment on Escherichia coli [10]. For the same compound, the MIC in the experiment on Salmonella typhimurium [11] and in the experiment on Escherichia coli [12] was 32800 µg/mL in each case.
For the compound `Cc1ccc(C(C)C)c(O)c1` [THYMOL], the minimal inhibitory concentration (MIC) was 256 µg/mL in experiment [1]; 256 µg/mL in the experiment on Staphylococcus aureus [2]; 128 µg/mL in experiment [3]; 256 µg/mL in the experiment with Escherichia coli [4]; 128 µg/mL with Salmonella typhimurium [5]; 256 µg/mL in the experiment with Staphylococcus aureus [6]. The minimum inhibitory concentration (MIC) in the experiment with Enterococcus faecalis amounted to 256 µg/mL; with Escherichia coli [7], 64 µg/mL; in the experiment with Escherichia coli [8], 256 µg/mL; in the experiment with Pseudomonas aeruginosa, 256 µg/mL; in the experiment with Staphylococcus aureus [9] it was 256 µg/mL; in the experiment with Escherichia coli [10], 256 µg/mL. In addition, the minimum inhibitory concentration (MIC) came out at 256 µg/mL with Salmonella typhimurium [11] and 128 µg/mL with Escherichia coli [12].
As for `CC(C)c1ccc(C=O)cc1` [CUMINALDEHYDE], the minimal inhibitory concentration (MIC) in experiment [1] was found to be 8190 µg/mL; with Staphylococcus aureus [2] it was 8190 µg/mL; in experiment [3] it was 8190 µg/mL; with Escherichia coli [4], 8190 µg/mL; in the experiment on Salmonella typhimurium [5], 8190 µg/mL; with Staphylococcus aureus [6] it was 4100 µg/mL. For the same compound, the MIC with Enterococcus faecalis came to 2050 µg/mL; in the experiment on Escherichia coli [7], 16400 µg/mL; in the experiment with Escherichia coli [8], 16400 µg/mL; with Pseudomonas aeruginosa, 8190 µg/mL; in the experiment on Staphylococcus aureus [9], 2050 µg/mL; with Escherichia coli [10], 8190 µg/mL. Moreover, the MIC was determined as 8190 µg/mL in the experiment with Salmonella typhimurium [11] and 16400 µg/mL with Escherichia coli [12].
For `C=C(C)C1CC=C(C=O)CC1` (stereo not given) [PERILLALDEHYDE], the MIC in [1] was determined as 16400 µg/mL; in the experiment on Staphylococcus aureus [2], 1230 µg/mL; in experiment [3], 256 µg/mL; in the experiment on Escherichia coli [4], 16400 µg/mL; with Salmonella typhimurium [5] it was 16400 µg/mL; in the experiment with Staphylococcus aureus [6], 2050 µg/mL. Besides, the MIC with Enterococcus faecalis is 512 µg/mL; in the experiment with Escherichia coli [7], 16400 µg/mL; in the experiment with Escherichia coli [8] it was 16400 µg/mL; in the experiment on Pseudomonas aeruginosa it was 1230 µg/mL; in the experiment with Staphylococcus aureus [9] it was 512 µg/mL; in the experiment on Escherichia coli [10] it was 16400 µg/mL. For the same compound, the MIC was determined as 16400 µg/mL in the experiment with Salmonella typhimurium [11] and 8190 µg/mL with Escherichia coli [12].
Consider `CC(C)=CCC/C(C)=C/C=O` [CITRAL], for which the minimum inhibitory concentration (MIC) was determined as 8190 µg/mL in experiment [1]; 1020 µg/mL with Staphylococcus aureus [2]; 4100 µg/mL in experiment [3]; 8190 µg/mL with Escherichia coli [4]; 8190 µg/mL with Salmonella typhimurium [5]; 1020 µg/mL with Staphylococcus aureus [6]. Further, the minimal inhibitory concentration (MIC) with Enterococcus faecalis came to 4100 µg/mL; in the experiment with Escherichia coli [7] it was 8190 µg/mL; with Escherichia coli [8], 16400 µg/mL; in the experiment with Pseudomonas aeruginosa, 4100 µg/mL; in the experiment on Staphylococcus aureus [9], 1020 µg/mL; in the experiment on Escherichia coli [10], 8190 µg/mL. In addition, the values for the MIC in the experiment with Salmonella typhimurium [11] and in the experiment on Escherichia coli [12] were 8190 µg/mL and 16400 µg/mL, respectively.
In the case of `Cc1ccc(C(C)C)cc1O` [CARVACROL], the minimum inhibitory concentration (MIC) came out at 128 µg/mL in [1]; 128 µg/mL with Staphylococcus aureus [2]; 128 µg/mL in experiment [3]; 256 µg/mL in the experiment with Escherichia coli [4]; 128 µg/mL in the experiment with Salmonella typhimurium [5]; 128 µg/mL in the experiment on Staphylococcus aureus [6]. Moreover, the minimal inhibitory concentration (MIC) in the experiment with Enterococcus faecalis is 256 µg/mL; in the experiment on Escherichia coli [7], 128 µg/mL; with Escherichia coli [8], 256 µg/mL; in the experiment with Pseudomonas aeruginosa, 128 µg/mL; with Staphylococcus aureus [9] it was 256 µg/mL; with Escherichia coli [10], 128 µg/mL. Moreover, the minimal inhibitory concentration (MIC) with Salmonella typhimurium [11] worked out at 128 µg/mL; in the experiment with Escherichia coli [12], 256 µg/mL.
For the compound `O=C(O)c1cn(C2CC2)c2cc(N3CCNCC3)c(F)cc2c1=O` [CIPROFLOXACIN], in the experiment on Escherichia coli [13], the Ratio was 2.
